The values below are quoted from earlier work in patent publication US9434727B2, “Substituted 4-phenylpiperidines, their preparation and use” (THE TRUSTEES OF COLUMBIA UNIVERSITY IN THE CITY OF NEW YORK, priority 2014, dated 2016).

The target in one data set is RBP4-TTR interaction (Homo sapiens (Human), UniProt P02753). The following applies: cited from earlier work.
Another data set deals with serum RBP4 and retinol (Rattus norvegicus (Rat), UniProt P04916). The following applies: in vivo; cited from earlier work.
The test system of data set [1] is retinal pigment epithelium cells. The following applies: many cell types, including the retinal pigment epithelium cells; cited from earlier work.
Another data set relates to mice. Particulars: cited from earlier work.
The next data set relates to Abca4−/− mice. The following applies: cited from earlier work.
The target in a further data set is RBP4 (Homo sapiens (Human), UniProt P02753). Particulars: cited from earlier work.

For `CC1=C(/C=C/C(C)=C/C=C/C(C)=C/C(=O)Nc2ccc(O)cc2)C(C)(C)CCC1` [fenretinide, N-(4-hydroxy-phenyl)retinamide], the RBP4-TTR interaction entry at RBP4-TTR interaction is “disrupt the RBP4-TTR interaction”. The “serum RBP4 and retinol” value on serum RBP4 and retinol was “reduce serum RBP4 and retinol”. Also, the induction of apoptosis result in data set [1] was “extremely active inducer of apoptosis”. Further, the formation of hemangiosarcomas result with mice is “stimulate formation of hemangiosarcomas”. For the same compound, in the data set on Abca4−/− mice (Abca4−/− mice), the A2E production entry is “reduced A2E production”. For the same compound, the “ocular all-trans retinol uptake and visual cycle” value in the data set with Abca4−/− mice (mouse, in vivo) was “inhibit ocular all-trans retinol uptake and slow down the visual cycle”. Further, on RBP4, the “binding to RBP4 and displacement of all-trans retinol” value is given as “bind to RBP4, displace all-trans retinol from RBP4”.
